“And” between values parts separate entries of the source, which are not always exact repeats. Equal values may be shown once.
Assays:
[1] = tested on: HC6X; assay: Repeated-exposure DILI training compounds, resazurin conversion, HC6X; details: for % resazurin conversion: repeat exposure; for resazurin conversion (Supplementary Figure 7D): replicates
Method: (§1) To evaluate the ability to predict hepatotoxicity, we adapted the differentiation assays to a 384-well format. […] As a readout, we evaluated cell viability by resazurin conversion and correlated the results to therapeutic doses (Cmax values).
(§2) PSCs were differentiated in a 384-well format. […] As a negative control, 41 wells were left untreated. HepG2 were seeded at 40,000 cells per well. […] Cells were fixed with 4% PFA. […] Drugs were administrated after 8 h of attachment.

[2] = tested on: HepG2; assay: Repeated-exposure DILI training compounds, resazurin conversion, HepG2; details: for % resazurin conversion: repeat exposure; for resazurin conversion (Supplementary Figure 7D): replicates
Method: as §1, §2

[3] = tested on: HLC; assay: Repeated-exposure DILI training compounds, resazurin conversion, HLC; details: repeat exposure
Method: as §1, §2

[4] = tested on: HC3X; assay: Repeated-exposure DILI training compounds, resazurin conversion, HC3X; details: for IC50/Cmax: human; for resazurin conversion (Supplementary Figure 7D): HC3X AAGLY D40, replicates
Method: as §1, §2

[5] = HC6X AAGLY D40 Remove dox, 100 uM

O=C1CC2(CCCC2)CC(=O)N1CCCCN1CCN(c2ncccn2)CC1 [Buspiron]
% resazurin conversion ([1]; HC6X AAGLY D40, 3 uM): 109.5% and 96.9% and 120.8% and 98% and 87.5% and 117.9%
% resazurin conversion ([1]; HC6X AAGLY D40, 5 uM): 83.7% and 97.5% and 104.1% and 109.8% and 83.3% and 99.7%
% resazurin conversion ([1]; HC6X AAGLY D40, 10 uM): 85.5% and 135.9% and 111.1% and 117.5% and 91.9% and 102.2%
% resazurin conversion ([1]; HC6X AAGLY D40, 30 uM): 114% and 167.8% and 149.8% and 117.8% and 94% and 164.1%
% resazurin conversion ([1]; HC6X AAGLY D40, 50 uM): 112.9% and 116.6% and 111.2% and 167.3% and 107.2% and 107.3%
% resazurin conversion ([1]; HC6X AAGLY D40, 100 uM): 109.2% and 112.4% and 163.5% and 127.2% and 106% and 162.8%
% resazurin conversion ([1]; HC6X AAGLY D40, 300 uM): 140.3% and 103.5% and 121.9% and 115.9% and 101.2% and 155.2%
% resazurin conversion ([1]; HC6X AAGLY D40, 600 uM): 143.6% and 91% and 112.3% and 121.3% and 99.3% and 149.8%
% resazurin conversion ([1]; HC6X AAGLY D40, 1200 uM): 56.9% and 60.8% and 76.3% and 66.9% and 59.2%
% resazurin conversion ([1]; HC6X AAGLY D40 Remove dox, 3 uM): 93.4% and 152.6% and 130.2% and 156.1% and 101.5% and 127.1%
% resazurin conversion ([1]; HC6X AAGLY D40 Remove dox, 10 uM): 169.9% and 114.9% and 169.4% and 120.1% and 97.5% and 96%
% resazurin conversion [1, 5]: 158.4% and 106.8% and 179.1% and 111.4% and 123.7% and 132%
% resazurin conversion ([2]; HepG2 AAGLY D30, 3 uM): 82.9% and 82.6% and 85.2% and 70.1% and 73.2%
% resazurin conversion ([2]; HepG2 AAGLY D30, 5 uM): 75.8% and 88.2% and 72.9% and 66.2% and 79.4% and 72.2%
% resazurin conversion ([2]; HepG2 AAGLY D30, 10 uM): 70.9% and 76.8% and 83.7% and 64.5% and 73.5% and 76.4%
% resazurin conversion ([2]; HepG2 AAGLY D30, 30 uM): 83.2% and 92.9% and 78.7% and 72.3% and 78.9% and 76.5%
% resazurin conversion ([2]; HepG2 AAGLY D30, 50 uM): 80.3% and 98.3% and 89.9% and 83.3% and 93.4% and 81.9%
% resazurin conversion ([2]; HepG2 AAGLY D30, 100 uM): 88.3% and 87.7% and 85.2% and 77.2% and 94.7% and 81.8%
% resazurin conversion ([2]; HepG2 AAGLY D30, 300 uM): 47.4% and 86.8% and 88.6% and 79.7% and 88.3% and 80.1%
% resazurin conversion ([2]; HepG2 AAGLY D30, 600 uM): 76.5% and 91.9% and 75.1% and 71.1% and 78% and 76.7%
% resazurin conversion ([2]; HepG2 AAGLY D30, 1200 uM): 38% and 34.1% and 34.5% and 34.6% and 35.7%
% resazurin conversion ([2]; HepG2 CTL D7, 3 uM): 92.8%
% resazurin conversion ([2]; HepG2 CTL D7, 5 uM): 96.4% and 97.6% and 106.5% and 96.6% and 98% and 90.2%
% resazurin conversion ([2]; HepG2 CTL D7, 10 uM): 94.3% and 94.1% and 99.5% and 93.5% and 98.4% and 95.6%
% resazurin conversion ([2]; HepG2 CTL D7, 30 uM): 82.7% and 84.2% and 92.3% and 83% and 85.3% and 78.8%
% resazurin conversion ([2]; HepG2 CTL D7, 50 uM): 72.7% and 67.2% and 78.7% and 68.5% and 76.7% and 71.9%
% resazurin conversion ([2]; HepG2 CTL D7, 100 uM): 67.5% and 61.8% and 72.7% and 60.8% and 71.2% and 63.1%
% resazurin conversion ([2]; HepG2 CTL D7, 300 uM): 61.1% and 51.9% and 57.2% and 57% and 59.1% and 57.6%
% resazurin conversion ([2]; HepG2 CTL D7, 600 uM): 38.6% and 29% and 35.3% and 36.3% and 35.1% and 38.2%
% resazurin conversion ([2]; HepG2 CTL D7, 1200 uM): 7% and 6.5% and 7.1% and 6.8% and 6.6%
% resazurin conversion ([3]; HLC AAGLY D40, 5 uM): 67.7% and 92.7% and 64.2% and 84.3% and 47.9% and 66.7%
% resazurin conversion ([3]; HLC AAGLY D40, 10 uM): 85.8% and 64.9% and 92.1% and 82% and 66.1% and 66.8%
% resazurin conversion ([3]; HLC AAGLY D40, 30 uM): 116.3% and 73.9% and 114.6% and 80.9% and 111.6% and 83.2%
% resazurin conversion ([3]; HLC AAGLY D40, 600 uM): 33.4% and 36.6% and 61.5% and 38.3% and 40.4% and 34.1%
% resazurin conversion ([3]; HLC AAGLY D40, 1200 uM): 36.8% and 25.4% and 26.6% and 31.3% and 28.1% and 38%
% resazurin conversion ([3]; HLC LDM D40, 3 uM): 103.9% and 103.1% and 108.1% and 79.4% and 66.2% and 77.5%
% resazurin conversion ([3]; HLC LDM D40, 5 uM): 89.3% and 69.5% and 87.6% and 70.2% and 108.2%
% resazurin conversion ([3]; HLC LDM D40, 10 uM): 86.6% and 87.3% and 101% and 83.8% and 104.7% and 105%
% resazurin conversion ([3]; HLC LDM D40, 30 uM): 71.9% and 90.1% and 102.1% and 75.5% and 80.5% and 81.4%
% resazurin conversion ([3]; HLC LDM D40, 50 uM): 56.1% and 105.8% and 92.3% and 104% and 79.6%
% resazurin conversion ([3]; HLC LDM D40, 100 uM): 84.7% and 120.8% and 121.2% and 77.9% and 92% and 91.2%

O=C1CC2(CCCC2)CC(=O)N1CCCCN1CCN(c2ncccn2)CC1 [Buspirone]
IC50/Cmax [4]: 120200

CCc1ccc(CCOc2ccc(CC3SC(=O)NC3=O)cc2)nc1 (stereo not shown) [Proglitazone]
resazurin conversion (Supplementary Figure 7D) ([4]; 30 uM): 121 and 98.9 and 91.2 and 87.5 and 101
resazurin conversion (Supplementary Figure 7D) ([4]; 50 uM): 105.9 and 84.2 and 118.5 and 71.8 and 81.4 and 110
resazurin conversion (Supplementary Figure 7D) ([4]; 100 uM): 120.6 and 83.7 and 95.6 and 119.3 and 129.6
resazurin conversion (Supplementary Figure 7D) ([4]; 300 uM): 107.4 and 124.1 and 139.3 and 91.4 and 117.3 and 157.9
resazurin conversion (Supplementary Figure 7D) ([4]; 600 uM): 74.1 and 108.7 and 93.3 and 116.1 and 116 and 105.8
resazurin conversion (Supplementary Figure 7D) ([4]; 1200 uM): 119 and 156.2 and 148 and 139.2 and 120.5
resazurin conversion (Supplementary Figure 7D) ([1]; HC6X AAGLY D40, 30 uM): 134.4 and 112 and 79.3 and 107.2 and 76.2 and 91.4
resazurin conversion (Supplementary Figure 7D) ([1]; HC6X AAGLY D40, 50 uM): 137 and 83.7 and 59.1 and 75.7 and 149.3 and 136.5
resazurin conversion (Supplementary Figure 7D) ([1]; HC6X AAGLY D40, 100 uM): 100.9 and 141.3 and 83.6 and 90.9 and 69.2 and 155.3
resazurin conversion (Supplementary Figure 7D) ([1]; HC6X AAGLY D40, 300 uM): 125.9 and 124.5 and 135.2 and 127.1 and 125.2 and 153.4
resazurin conversion (Supplementary Figure 7D) ([1]; HC6X AAGLY D40, 600 uM): 91.5 and 88.8 and 88.2 and 125.7 and 101 and 136.6
resazurin conversion (Supplementary Figure 7D) ([1]; HC6X AAGLY D40, 1200 uM): 94.8 and 131 and 95.9 and 103.6 and 97.2 and 136.5
resazurin conversion (Supplementary Figure 7D) ([1]; HC6X AAGLY D40 Remove dox, 30 uM): 121 and 98.9 and 91.2 and 87.5 and 101
resazurin conversion (Supplementary Figure 7D) ([1]; HC6X AAGLY D40 Remove dox, 50 uM): 105.9 and 84.2 and 118.5 and 71.8 and 81.4 and 110
resazurin conversion (Supplementary Figure 7D) [1, 5]: 120.6 and 83.7 and 95.6 and 119.3 and 129.6
resazurin conversion (Supplementary Figure 7D) ([1]; HC6X AAGLY D40 Remove dox, 300 uM): 107.4 and 124.1 and 139.3 and 91.4 and 117.3 and 157.9
resazurin conversion (Supplementary Figure 7D) ([1]; HC6X AAGLY D40 Remove dox, 600 uM): 74.1 and 108.7 and 93.3 and 116.1 and 116 and 105.8
resazurin conversion (Supplementary Figure 7D) ([1]; HC6X AAGLY D40 Remove dox, 1200 uM): 119 and 156.2 and 148 and 139.2 and 120.5
resazurin conversion (Supplementary Figure 7D) ([2]; HepG2 AAGLY D30, 30 uM): 76.5 (2×) and 98.3 and 82.8 and 103.2 and 80.9
resazurin conversion (Supplementary Figure 7D) ([2]; HepG2 AAGLY D30, 50 uM): 86.1 and 109.6 and 86.4 and 100 and 77.1 and 92.9
resazurin conversion (Supplementary Figure 7D) ([2]; HepG2 AAGLY D30, 100 uM): 85.4 and 96.2 and 90.6 and 100.7 and 78.9 and 86.6
resazurin conversion (Supplementary Figure 7D) ([2]; HepG2 AAGLY D30, 300 uM): 105.7 and 117.9 and 106.2 and 102.2
resazurin conversion (Supplementary Figure 7D) ([2]; HepG2 AAGLY D30, 600 uM): 91.8 and 99.3 and 126.4 and 102.6 and 116.8
resazurin conversion (Supplementary Figure 7D) ([2]; HepG2 AAGLY D30, 1200 uM): 95.2 and 102.5 and 118.4 and 129.4 and 110.4 and 135.6
resazurin conversion (Supplementary Figure 7D) ([2]; HepG2 CTL D7, 30 uM): 120.4 and 118.8 and 101.6 and 104 and 100.1
resazurin conversion (Supplementary Figure 7D) ([2]; HepG2 CTL D7, 50 uM): 129.5 and 93.8 and 100.8 and 96.7 and 101.2 and 122.3
resazurin conversion (Supplementary Figure 7D) ([2]; HepG2 CTL D7, 100 uM): 125.4 and 88.5 and 98 and 96 (2×) and 110.7
resazurin conversion (Supplementary Figure 7D) ([2]; HepG2 CTL D7, 300 uM): 117.2 and 87 and 94.6 (2×) and 95.5 and 111.8
resazurin conversion (Supplementary Figure 7D) ([2]; HepG2 CTL D7, 600 uM): 86.3 and 70.3 and 76.6 and 75.3 and 70.1 and 87.4
resazurin conversion (Supplementary Figure 7D) ([2]; HepG2 CTL D7, 1200 uM): 57 and 33 and 42.5 and 44.8 and 41.7 and 59

C1CCC(C(CC2CCCCN2)C2CCCCC2)CC1 (stereo not shown) [perhexiline]
IC50/Cmax [4]: 0.58
